These results are taken from PMC5923414, “Terpenoids from the Soft Coral Sinularia sp. Collected in Yongxing Island” (Marine Drugs, 2018).

pIC50: −log10 of the molar value. Where two headings read alike, the source gives them in different places.

In data set [1] the test system is influenza A virus (H1N1). Kind of data set: antiviral activity, CPE inhibition assay. It is filed as cell-based. Here is the method: (§1) The antiviral activities against influenza A virus (H1N1) and (PR8) were evaluated by the CPE inhibition assay as the literature reported. […]
Data set [2] deals with influenza A virus (PR8). In words: antiviral activity, CPE inhibition assay. Type of data set: cell-based. The following applies: read-out: IC50 against influenza A virus PR8. The protocol:
as §1

Data set [3] can be described thus: cytotoxicity, MTT method. It is filed as cell-based. The following applies: human. Here is the method: The cytotoxicities against Jurkat, MDA-MB-231, U2OS, HeLa, HCT-116, and A549 cell lines were assayed by MTT method with Adriamycin as a positive control. All the cell lines were purchased from Shanghai Institute of Cell Biology (Shanghai, China).
The subject of data set [4] is Plasmodium falciparum 3D7. Kind of data set: in vitro antimalarial activity, SYBR-Green assay. It is filed as cell-based. The following applies: 10 nM dihydroartemisinine as positive control, read-out: IC50, antimalarial activity against P. falciparum 3D7. Here is the method:
The in vitro antimalarial activity was assessed against P. falciparum (3D7) using an SYBR-Green assay with 10 nM dihydroartemisinine as positive control. Twelve diluted samples (5 µM, 10 µM, 20 µM, 40 µM, 80 µM, 100 µM, 200 µM, 400 µM, 800 µM, 1 mM, 2 mM, and 4 mM) were added to the test wells to obtain the 50% inhibiting concentration.

The target in data set [5] is acetylcholinesterase (Homo sapiens, UniProt P22303). In words: acetylcholinesterase inhibition, Ellman spectrophotometric method. The following applies: at 50 μg/mL; read-out: inhibition rate against acetylcholinesterase. It is filed as biochemical. Here is the method: (§2) Evaluation of the inhibitory effects on acetylcholinesterase was performed by the spectrophotometric method developed by Ellman with slight modifications as reported, and on c-Met and PTP1B by using the enzyme-linked immunosorbent assay (ELISA) methodology.
Background: In Ellman's method for cholinesterases, released thiocholine reacts with DTNB.

The target of data set [6] is T1, protein tyrosine phosphatase 1B (PTP1B) (Homo sapiens, UniProt P18031).
T1 sequence (P18031 1-435): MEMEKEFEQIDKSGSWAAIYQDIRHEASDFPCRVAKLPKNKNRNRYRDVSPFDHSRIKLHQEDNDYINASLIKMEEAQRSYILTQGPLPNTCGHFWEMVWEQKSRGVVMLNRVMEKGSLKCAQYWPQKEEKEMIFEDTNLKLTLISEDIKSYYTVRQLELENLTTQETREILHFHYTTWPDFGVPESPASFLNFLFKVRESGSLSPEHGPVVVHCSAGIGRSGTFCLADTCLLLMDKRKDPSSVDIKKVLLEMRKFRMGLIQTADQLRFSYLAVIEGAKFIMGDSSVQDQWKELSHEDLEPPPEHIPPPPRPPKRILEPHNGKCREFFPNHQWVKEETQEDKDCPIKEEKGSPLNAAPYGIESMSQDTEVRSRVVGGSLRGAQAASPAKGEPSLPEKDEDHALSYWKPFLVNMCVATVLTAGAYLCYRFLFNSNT
In words: biochemical. The following applies: read-out: IC50, target inhibitory activity against PTP1B. The protocol:
as §2

Sequence of acetylcholinesterase (P22303 32-614, species assumed): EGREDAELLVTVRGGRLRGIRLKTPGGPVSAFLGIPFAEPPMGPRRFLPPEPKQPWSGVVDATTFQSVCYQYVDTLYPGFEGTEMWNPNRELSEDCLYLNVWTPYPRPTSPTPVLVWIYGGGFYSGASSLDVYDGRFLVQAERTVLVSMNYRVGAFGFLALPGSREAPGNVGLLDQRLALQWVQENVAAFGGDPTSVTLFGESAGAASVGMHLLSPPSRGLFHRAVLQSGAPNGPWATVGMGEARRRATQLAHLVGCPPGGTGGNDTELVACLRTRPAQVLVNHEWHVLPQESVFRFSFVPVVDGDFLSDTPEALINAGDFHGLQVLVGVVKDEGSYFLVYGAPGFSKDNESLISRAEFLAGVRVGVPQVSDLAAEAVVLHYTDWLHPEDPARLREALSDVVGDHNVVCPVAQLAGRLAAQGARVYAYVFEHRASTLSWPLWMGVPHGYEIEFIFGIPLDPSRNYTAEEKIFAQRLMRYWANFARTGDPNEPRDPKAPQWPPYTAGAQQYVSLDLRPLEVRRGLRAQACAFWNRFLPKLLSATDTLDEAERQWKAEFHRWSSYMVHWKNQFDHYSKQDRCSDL

One may read the pIC50 as the IC50 on a negative log10 scale, so that one unit is a factor of ten. One may read the inhibition as the relative decrease from the control value, in per cent. On to `C=C1CCC2(O)CC3(CCC(C(C)C)C3C1)OO2` (stereo not shown) [Compound 1, Sinuketal], for which the pIC50 in data set [1] (H1N1, read-out: IC50 against influenza A virus H1N1) is 3.76; in data set [2], 3.35; in data set [3] (Jurkat cells, Jurkat cell line, read-out: IC50, cytotoxic activity toward Jurkat), 4.60; in data set [3] (MDA-MB-231 cells, MDA-MB-231 cell line, read-out: IC50, cytotoxic activity toward MDA-MB-231), 4.49; in data set [3] (U2OS cells, U2OS cell line, read-out: IC50, cytotoxic activity toward U2OS), 4.38; in data set [4], 4.10. In addition, the inhibition at 50 µg/mL in data set [5] is 20.2%.
In the case of `C=C(C)[C@@H]1C/C=C2\C(=O)O[C@@H](C[C@]3(C)CC(=O)[C@H](CC(=O)C1)O3)[C@@H]2O` [Compound 20, 5-episinuleptolide], the pIC50 in data set [3] (HCT-116 cells, HCT-116 cell line, read-out: IC50, cytotoxicity against HCT-116) is 4.48; in data set [3] (HeLa cells, HeLa cell line, read-out: IC50, cytotoxicity against HeLa), 4.94.
Take `C=C(C)C1CC=C(C(=O)OC)CC(=O)CC2(C)CC(=O)C(CC(=O)C1)O2` (stereo not shown) [Compound 5, sinulin D]: the pIC50 in data set [6] was 4.32.
As for `NC(=O)c1ncn([C@@H]2O[C@H](CO)[C@@H](O)[C@H]2O)n1` [ribavirin, reference compound], the pIC50 in data set [1] (positive control, strain (H1N1 or PR8) not specified, read-out: IC50 of positive control, influenza A viruses) was 3.99.
Regarding `CC(C)[C@@H]1CC[C@@](C)(O)[C@@H]2CCC(CO)=C[C@H]21` [Compound 11, 15-hydroxy-α-cadinol], the pIC50 in data set [6] is 4.66.
Same read-out and setting: under `C=C(C)C1CCC(C)=CCCC(C)=CCCC2(C)OC2C1` [Compound 15, (1R,3S,4S,7E,11E)-3,4-epoxycembra-7,11,15-triene] stands 4.90.
